What was measured:
Type in all cases: cell-based
[1] = tested on: IRF (Interferon Regulatory Factor) pathway; test: Effect on IRF (Interferon Regulatory Factor) pathway, Quanti-luc reporter cells; conditions: activation of the IRF pathway, luminescence, about 24 hours incubation
Protocol: The cells mainly described at lines 12-20 of the right column on page 183 in Mol Immunol. 2017, Vol. 90, p. 182-189 were suspended in RPMI medium to prepare 2×10^6 cells/mL of cell suspension. 50 μL of the cell suspensions were dispensed into a 96-well plate, to which 50 μL of 6 to 20,000 nmol/L compound solutions were added. After adding the compound, the mixture thereof was incubated at 37° C. for about 24 hours. After incubation, 10 μL of cell suspensions were collected from each well, which were mixed with 50 μL of Quanti-luc (Invivogen). Then, the activation of the IRF pathway was measured by detecting luminescence using a microplate reader (Molecular Devices).

[2] = tested on: human acute myeloid leukemia cell lines; test: Anti-tumor effect on human acute myeloid leukemia cell lines (Cell Counting Kit-8); conditions: administration alone, 100 to 1000 nmol/L, 48 hours
Protocol: The compound prepared in Example 3 (Compound B) was evaluated for anti-tumor activity against several human acute myeloid leukemia cell lines shown in the table of FIG. 13.
The cell lines above were suspended in medium (RPMI 1640 containing 10% FBS and 1% Penicillin-Streptomycin), respectively, and seeded into 96-well plates at a density of 5.0×10^4 cells/well. Immediately after seeding, mediums containing Compound B and Vehicle (0.1% at the final concentration of DMSO solution after addition to the medium), respectively, were added to each well and mixed well. The final concentration of Compound B after addition to the medium was prepared to be 100 to 1000 nmol/L, respectively. After culturing the cell lines for 48 hours at 37° C. and 5% CO2, 10 μL of Cell Counting Kit-8 (Dojindo) was added to each well, and after incubation for 60 minutes, the absorbance (450 nm) in each well was measured using a microplate reader. EC50 value was calculated from the absorbance value using Graphpad prism (Graphpad Software) to evaluate the effect of Compound B on cell proliferation. […] Relative cell count was calculated according to the following formula. Relative minimum cell count represents the minimum value of the above values.
Relative cell count (%)=(Absorbance (450 nm) in addition of Compound B−blank)/(Absorbance (450 nm) in addition of Vehicle (0.1% DMSO)−blank)×100 [Formula 1]

[3] = tested on: human acute myeloid leukemia cell lines (KG-1α, THP-1 and CMK); test: Anti-tumor effects in combination with anti-neoplastic agents, human acute myeloid leukemia cell lines; conditions: combination with Compound B 10 to 1000 nmol/L, 48 hours, absorbance 450 nm
Protocol: (§1) The anti-tumor effects of the STING agonistic compounds pertaining to the present invention and combination thereof with anti-neoplastic agents were evaluated on several human acute myeloid leukemia cell lines (KG-1α, THP-1 and CMK) and human B-cell lymphoma cell lines (DOHH2 and OLI-Ly3) below.
The cell lines above were suspended in medium (RPMI 1640 containing 10% FBS and 1% Penicillin-Streptomycin), respectively, and seeded into 96-well plates at a density of 2.5 to 5×10^4 cells/well. Immediately after seeding, mediums containing Compound B prepared, respectively, such that the final concentrations after addition to the mediums become 0, 10, 30, 100, 300, and 1000 nmol/L and anti-neoplastic agents prepared such that those become the following final concentrations, respectively, were added to each well and mixed well. As a control, DMSO solution prepared such that the final concentration becomes 0.10% after addition to the medium was added thereto, separately. • Venetoclax (final concentrations: 0, 1, 10, 100, 1000, and 10000 nmol/L, respectively), • Cytarabine (final concentrations: 0, 1, 10, 100, 1000, and 10000 nmol/L, respectively), • Azacitidine (final concentrations: 0, 1, 10, 100, 1000, and 10000 nmol/L, respectively), and • Navitoclax (final concentrations: 0, 50, 500, and 5000 nmol/L, respectively) (the concentration of Compound B in combination with Navitoclax is 1000 nmol/L).
After culturing the cell lines for 48 hours at 37° C. and 5% CO2, 10 μL of Cell Counting Kit-8 (Dojindo) was added to each well, and after incubation for 60 minutes, the absorbance (450 nm) in each well was measured using a microplate reader. FIGS. 13, 14, and 15 show results thereof, respectively. In the figures, the “signal intensity” on the vertical axis represents the absorbance value (450 nm), and the lower the value, the higher the anti-tumor effect.

[4] = tested on: human B-cell lymphoma cell lines (DOHH2 and OLI-Ly3); test: Anti-tumor effects in combination with Navitoclax, human B-cell lymphoma cell lines; conditions: combination with Compound B 1000 nmol/L, DOHH2 and OLI-Ly3, 48 hours
Protocol: as §1
The cell lines above were suspended in medium (RPMI 1640 containing 10% FBS and 1% Penicillin-Streptomycin), respectively, and seeded into 96-well plates at a density of 2.5 to 5×10^4 cells/well. Immediately after seeding, mediums containing Compound B prepared, respectively, such that the final concentrations after addition to the mediums become 0, 10, 30, 100, 300, and 1000 nmol/L and anti-neoplastic agents prepared such that those become the following final concentrations, respectively, were added to each well and mixed well. […]
After culturing the cell lines for 48 hours at 37° C. and 5% CO2, 10 μL of Cell Counting Kit-8 (Dojindo) was added to each well, and after incubation for 60 minutes, the absorbance (450 nm) in each well was measured using a microplate reader. […] In the figures, the “signal intensity” on the vertical axis represents the absorbance value (450 nm), and the lower the value, the higher the anti-tumor effect.

CC(=O)c1cc(-c2ncc(-c3cn[nH]c3)c3onc(N)c23)c(F)cc1N [Example 3, 1-(2-amino-5-(3-amino-7-(1H-pyrazol-4-yl)isoxazolo[4,5-c]pyridin-4-yl)-4-fluorophenyl)ethan-1-one]
EC50 [1]: 40 nM
anti-tumor effect (cell proliferation) [2]: significant anti-tumor effect
anti-tumor activity of Azacitidine [3]: enhanced
anti-tumor activity of Cytarabine [3]: enhanced
anti-tumor activity of Venetoclax [3]: enhanced
anti-tumor activity of Navitoclax [4]: enhanced

From US20230141284A1, “CANCER THERAPEUTIC METHOD” (ONO PHARMACEUTICAL CO., LTD., priority 2020, published 2023)
